Laboratory results reported in ChEMBL document CHEMBL4828709, “Discovery of 2,4-pyrimidinediamine derivatives as potent dual inhibitors of ALK and HDAC” (Eur J Med Chem, 2021).
Active and inactive are the calls of the source. No cut-off for these calls is given here.

Legend:
MDA-MB-231 [1] = assay: Cell cycle arrest in human MDA-MB-231 cells assessed as accumulation of cells at G2 phase at 1 uM measured after 24 hrs by PI staining based flowcytometry method (reference value: 23.89%); format: functional
NCI-H2228 = assay: Potency index, ratio of ceritinib IC50 to test compound IC50 for human NCI-H2228 cells harboring EML4/ALK […] assessed as inhibition of cell proliferation measured after 72 hrs by CCK8 assay; format: functional
SH-SY5Y [2] = assay: Cell cycle arrest in human SH-SY5Y cells assessed as accumulation of cells at G2 phase at 4 uM measured after 24 hrs by PI staining based flowcytometry method (reference value: 13.23%); format: functional
[3] = target: ALK tyrosine kinase receptor (Homo sapiens, UniProt Q9UM73, G1202R)
[4] = Cmax in Sprague-Dawley rat at 1 mg/kg, iv measured for 12 hrs by LC-MS/MS analysis; format: ADME, organism-based; set-up: route intravenous, time 12 hrs, dose 1 mg/kg; conditions: in vivo
MDA-MB-231 [5] = assay: Induction of apoptosis in human MDA-MB-231 cells assessed as late apoptotic cells at 1 uM measured after 24 hrs by Annexin V-FITC/PI staining based flowcytometry ( Rvb = 5.28%); format: functional
[6] = target: T1, ALK tyrosine kinase receptor (Homo sapiens, UniProt Q9UM73)
Description: Inhibition of ALK (unknown origin) preincubated for 10 mins followed by addition of substrate and ATP for 25 mins by caliper EZ reader method

MDA-MB-231 [7] = assay: Potency index, ratio of crizotinib IC50 to test compound IC50 for human MDA-MB-231 cells assessed as inhibition of cell proliferation measured after 72 hrs by CCK8 assay; format: functional
[8] = target: T1, ALK tyrosine kinase receptor; assay: Inhibition of ALK in human MDA-MB-231 cells assessed as inhibition of ALK phosphorylation at Tyr1278 residue measured after 24 hrs by Western blot assay; format: cell-based; conditions: dose 1-4 µM
Target sequence in this assay (Q9UM73 19-1620 limits assumed): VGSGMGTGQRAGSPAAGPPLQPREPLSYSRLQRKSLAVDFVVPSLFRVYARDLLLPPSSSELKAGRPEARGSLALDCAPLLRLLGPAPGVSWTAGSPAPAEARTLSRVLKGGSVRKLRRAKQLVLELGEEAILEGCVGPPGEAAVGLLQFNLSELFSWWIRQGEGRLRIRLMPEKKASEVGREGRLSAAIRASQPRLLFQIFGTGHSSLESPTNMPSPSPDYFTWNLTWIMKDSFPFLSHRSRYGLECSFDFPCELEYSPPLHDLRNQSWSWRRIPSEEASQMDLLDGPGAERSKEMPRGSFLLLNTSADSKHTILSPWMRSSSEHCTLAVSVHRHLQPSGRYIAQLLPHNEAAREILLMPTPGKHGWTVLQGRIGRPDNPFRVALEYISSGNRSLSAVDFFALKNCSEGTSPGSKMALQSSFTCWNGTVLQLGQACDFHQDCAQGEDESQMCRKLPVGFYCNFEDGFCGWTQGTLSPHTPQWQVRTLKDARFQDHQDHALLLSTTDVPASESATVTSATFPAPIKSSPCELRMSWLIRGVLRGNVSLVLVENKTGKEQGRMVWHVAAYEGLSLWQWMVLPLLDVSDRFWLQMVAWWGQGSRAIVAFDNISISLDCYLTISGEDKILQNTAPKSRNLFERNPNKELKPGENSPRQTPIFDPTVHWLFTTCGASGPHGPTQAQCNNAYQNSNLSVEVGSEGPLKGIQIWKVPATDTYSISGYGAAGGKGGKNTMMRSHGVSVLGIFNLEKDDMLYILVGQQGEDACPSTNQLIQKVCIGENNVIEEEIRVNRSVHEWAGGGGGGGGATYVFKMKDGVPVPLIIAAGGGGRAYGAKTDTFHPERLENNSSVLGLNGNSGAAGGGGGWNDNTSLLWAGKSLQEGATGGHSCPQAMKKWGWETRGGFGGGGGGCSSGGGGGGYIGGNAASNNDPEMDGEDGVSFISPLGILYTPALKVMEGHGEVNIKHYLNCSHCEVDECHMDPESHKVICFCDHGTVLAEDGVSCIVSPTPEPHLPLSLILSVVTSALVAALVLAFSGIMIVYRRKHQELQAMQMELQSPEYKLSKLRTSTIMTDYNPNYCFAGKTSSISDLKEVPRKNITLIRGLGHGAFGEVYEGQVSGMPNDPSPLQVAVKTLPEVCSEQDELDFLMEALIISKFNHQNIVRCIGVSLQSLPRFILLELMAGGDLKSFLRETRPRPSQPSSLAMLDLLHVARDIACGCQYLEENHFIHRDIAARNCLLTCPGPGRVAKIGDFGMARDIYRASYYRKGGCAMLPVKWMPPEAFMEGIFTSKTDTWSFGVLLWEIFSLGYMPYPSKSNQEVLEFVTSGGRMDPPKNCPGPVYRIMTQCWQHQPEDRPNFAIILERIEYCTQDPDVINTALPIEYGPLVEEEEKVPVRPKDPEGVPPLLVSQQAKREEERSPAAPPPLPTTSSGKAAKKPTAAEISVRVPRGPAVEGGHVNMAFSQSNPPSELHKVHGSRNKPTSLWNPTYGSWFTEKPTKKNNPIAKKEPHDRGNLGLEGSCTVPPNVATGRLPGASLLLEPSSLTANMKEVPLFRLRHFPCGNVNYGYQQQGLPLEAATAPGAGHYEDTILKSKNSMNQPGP

[9] = target: T1, ALK tyrosine kinase receptor; assay: Inhibition of ALK in human MDA-MB-231 cells assessed as inhibition of ERK phosphorylation at Thr202/Tyr204 residue at 4 uM measured after 24 hrs by Western blot assay; format: cell-based
Target sequence in this assay (Q9UM73 19-1620 limits assumed): as above

MDA-MB-231 [10] = assay: Cell cycle arrest in human MDA-MB-231 cells assessed as accumulation of cells at S phase at 4 uM measured after 24 hrs by PI staining based flowcytometry method (reference value: 20.81%); format: functional
cells = format: functional, cell-based; conditions: Homo sapiens, SKNBE2, 72 h
Description: Antiproliferative activity against human SKNBE2 cells harboring wild type ALK assessed as inhibition of cell proliferation measured after 72 hrs by CCK8 assay

SH-SY5Y [11] = assay: Potency index, ratio of crizotinib IC50 to test compound IC50 for human SH-SY5Y cells harboring ALK F1174L mutant assessed as inhibition of cell proliferation measured after 72 hrs by CCK8 assay; format: functional
[12] = target: T1, ALK tyrosine kinase receptor; assay: Inhibition of ALK in human MDA-MB-231 cells assessed as inhibition of AKT phosphorylation at Ser473 residue at 4 uM measured after 24 hrs by Western blot assay; format: cell-based
Target sequence in this assay (Q9UM73 19-1620 limits assumed): as above

MDA-MB-231 [13] = assay: Antimigratory activity against human MDA-MB-231 cells assessed as wound closure at 0.4 uM measured after 48 hrs by cell scratch assay (reference value: 30.3%); format: functional
MDA-MB-231 [14] = assay: Cell cycle arrest in human MDA-MB-231 cells assessed as accumulation of cells at G1 phase at 1 uM measured after 24 hrs by PI staining based flowcytometry method (reference value: 55.32%); format: functional
[15] = target: T1, ALK tyrosine kinase receptor; assay: Inhibition of ALK in human MDA-MB-231 cells assessed as inhibition of ALK phosphorylation at Tyr1278 residue at 4 uM measured after 24 hrs by Western blot assay; format: cell-based
Target sequence in this assay (Q9UM73 19-1620 limits assumed): as above

MDA-MB-231 [16] = assay: Cell cycle arrest in human MDA-MB-231 cells assessed as accumulation of cells at S phase at 2 uM measured after 24 hrs by PI staining based flowcytometry method (reference value: 20.81%); format: functional
A549 = assay: Potency index, ratio of crizotinib IC50 to test compound IC50 for human A549 cells assessed as inhibition of cell proliferation measured after 72 hrs by CCK8 assay; format: functional
MDA-MB-231 [17] = assay: Induction of apoptosis in human MDA-MB-231 cells assessed as late apoptotic cells at 4 uM measured after 24 hrs by Annexin V-FITC/PI staining based flowcytometry (reference value: 5.28%); format: functional
[18] = target: Fibroblast growth factor receptor (Homo sapiens) (UniProt P22607+P11362+P22455+P21802); assay: Inhibition of human FGFR at 1 uM; format: protein assay
[19] = target: ALK tyrosine kinase receptor (Homo sapiens, UniProt Q9UM73, L1196M)
SH-SY5Y [20] = assay: Cell cycle arrest in human SH-SY5Y cells assessed as accumulation of cells at S phase at 2 uM measured after 24 hrs by PI staining based flowcytometry method (reference value: 27.69%); format: functional
[21] = target: T1, ALK tyrosine kinase receptor; assay: Inhibition of ALK in human MDA-MB-231 cells assessed as inhibition of ERK phosphorylation at Thr202/Tyr204 residue measured after 24 hrs by Western blot assay; format: cell-based; conditions: dose 1-4 µM
Target sequence in this assay (Q9UM73 19-1620 limits assumed): as above

[22] = target: T1, ALK tyrosine kinase receptor; assay: Inhibition of ALK (unknown origin) at 10 nM preincubated for 10 mins followed by addition of substrate and ATP for 25 mins by caliper EZ reader method; conditions: time 35.0 min
Target sequence in this assay (Q9UM73 19-1620 limits assumed): as above

SH-SY5Y [23] = assay: Induction of apoptosis in human SH-SY5Y cells assessed as early apoptotic cells at 2 uM measured after 24 hrs by Annexin V-FITC/PI staining based flowcytometry (reference value: 0.82%); format: functional

Sequence of Fibroblast growth factor receptor (Homo sapiens) (P11362 whole entry, looked up): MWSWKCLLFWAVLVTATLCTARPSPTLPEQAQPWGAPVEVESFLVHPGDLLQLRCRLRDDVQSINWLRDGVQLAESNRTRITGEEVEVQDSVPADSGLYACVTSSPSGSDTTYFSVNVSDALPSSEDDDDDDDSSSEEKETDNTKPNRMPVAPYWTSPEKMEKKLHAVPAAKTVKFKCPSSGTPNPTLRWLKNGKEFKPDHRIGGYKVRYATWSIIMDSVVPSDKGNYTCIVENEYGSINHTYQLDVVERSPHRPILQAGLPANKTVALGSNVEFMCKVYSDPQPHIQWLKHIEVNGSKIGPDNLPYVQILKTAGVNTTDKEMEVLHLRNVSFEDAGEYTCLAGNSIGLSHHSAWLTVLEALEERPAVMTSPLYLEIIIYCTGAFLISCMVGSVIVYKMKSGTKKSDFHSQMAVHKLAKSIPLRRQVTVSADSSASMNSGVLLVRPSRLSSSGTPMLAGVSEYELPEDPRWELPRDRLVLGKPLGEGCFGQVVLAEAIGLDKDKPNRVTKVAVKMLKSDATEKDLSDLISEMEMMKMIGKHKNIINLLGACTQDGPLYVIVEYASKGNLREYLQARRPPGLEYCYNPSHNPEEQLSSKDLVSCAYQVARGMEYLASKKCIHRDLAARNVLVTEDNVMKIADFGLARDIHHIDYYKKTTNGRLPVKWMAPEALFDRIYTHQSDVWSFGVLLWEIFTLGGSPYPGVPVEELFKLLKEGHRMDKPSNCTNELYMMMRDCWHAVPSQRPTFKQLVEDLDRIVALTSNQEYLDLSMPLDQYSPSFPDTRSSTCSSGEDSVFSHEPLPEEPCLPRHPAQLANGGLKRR
Sequence of Fibroblast growth factor receptor (Homo sapiens) (P21802 whole entry, looked up): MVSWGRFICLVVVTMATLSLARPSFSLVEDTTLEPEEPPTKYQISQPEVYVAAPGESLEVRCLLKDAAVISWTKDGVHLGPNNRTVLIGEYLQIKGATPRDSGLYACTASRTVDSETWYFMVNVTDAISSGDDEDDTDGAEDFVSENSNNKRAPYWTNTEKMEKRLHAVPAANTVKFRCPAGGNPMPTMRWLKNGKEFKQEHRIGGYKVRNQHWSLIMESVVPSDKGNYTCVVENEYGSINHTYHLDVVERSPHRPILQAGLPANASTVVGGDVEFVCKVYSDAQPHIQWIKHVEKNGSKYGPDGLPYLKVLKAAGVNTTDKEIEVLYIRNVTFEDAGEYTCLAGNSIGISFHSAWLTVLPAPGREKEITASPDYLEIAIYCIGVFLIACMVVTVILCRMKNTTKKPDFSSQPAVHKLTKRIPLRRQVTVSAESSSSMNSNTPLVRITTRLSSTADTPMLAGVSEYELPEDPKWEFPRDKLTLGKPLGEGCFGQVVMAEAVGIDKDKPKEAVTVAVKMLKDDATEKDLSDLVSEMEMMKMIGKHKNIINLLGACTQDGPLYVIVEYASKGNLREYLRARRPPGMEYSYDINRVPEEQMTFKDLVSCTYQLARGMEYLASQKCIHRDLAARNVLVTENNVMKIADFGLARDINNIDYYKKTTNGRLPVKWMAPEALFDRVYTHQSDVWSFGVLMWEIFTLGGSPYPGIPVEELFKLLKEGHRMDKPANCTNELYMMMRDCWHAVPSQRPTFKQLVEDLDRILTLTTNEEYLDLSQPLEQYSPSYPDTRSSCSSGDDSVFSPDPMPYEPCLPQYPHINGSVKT
Sequence of Fibroblast growth factor receptor (Homo sapiens) (P22455 whole entry, looked up): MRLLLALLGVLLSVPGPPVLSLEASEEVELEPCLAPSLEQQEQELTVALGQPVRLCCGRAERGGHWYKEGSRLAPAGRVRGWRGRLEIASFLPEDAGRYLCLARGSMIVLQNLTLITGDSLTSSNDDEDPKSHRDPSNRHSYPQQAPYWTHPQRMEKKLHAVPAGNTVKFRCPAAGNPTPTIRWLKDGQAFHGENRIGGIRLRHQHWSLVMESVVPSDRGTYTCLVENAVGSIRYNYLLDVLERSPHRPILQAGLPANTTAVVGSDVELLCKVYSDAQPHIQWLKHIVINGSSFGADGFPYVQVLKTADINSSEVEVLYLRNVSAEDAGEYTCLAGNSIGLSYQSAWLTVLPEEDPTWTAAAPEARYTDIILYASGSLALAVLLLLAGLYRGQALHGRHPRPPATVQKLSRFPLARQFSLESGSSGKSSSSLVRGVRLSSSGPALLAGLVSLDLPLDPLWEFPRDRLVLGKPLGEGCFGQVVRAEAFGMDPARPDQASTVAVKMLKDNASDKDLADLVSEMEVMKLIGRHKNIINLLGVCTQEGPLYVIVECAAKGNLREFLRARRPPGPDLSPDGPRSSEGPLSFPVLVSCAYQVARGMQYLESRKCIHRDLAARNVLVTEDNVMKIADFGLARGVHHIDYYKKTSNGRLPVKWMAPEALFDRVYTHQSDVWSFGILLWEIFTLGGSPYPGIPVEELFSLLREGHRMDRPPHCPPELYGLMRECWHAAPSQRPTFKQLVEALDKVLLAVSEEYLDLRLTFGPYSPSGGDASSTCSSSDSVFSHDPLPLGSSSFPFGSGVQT
Sequence of Fibroblast growth factor receptor (Homo sapiens) (P22607 whole entry, looked up): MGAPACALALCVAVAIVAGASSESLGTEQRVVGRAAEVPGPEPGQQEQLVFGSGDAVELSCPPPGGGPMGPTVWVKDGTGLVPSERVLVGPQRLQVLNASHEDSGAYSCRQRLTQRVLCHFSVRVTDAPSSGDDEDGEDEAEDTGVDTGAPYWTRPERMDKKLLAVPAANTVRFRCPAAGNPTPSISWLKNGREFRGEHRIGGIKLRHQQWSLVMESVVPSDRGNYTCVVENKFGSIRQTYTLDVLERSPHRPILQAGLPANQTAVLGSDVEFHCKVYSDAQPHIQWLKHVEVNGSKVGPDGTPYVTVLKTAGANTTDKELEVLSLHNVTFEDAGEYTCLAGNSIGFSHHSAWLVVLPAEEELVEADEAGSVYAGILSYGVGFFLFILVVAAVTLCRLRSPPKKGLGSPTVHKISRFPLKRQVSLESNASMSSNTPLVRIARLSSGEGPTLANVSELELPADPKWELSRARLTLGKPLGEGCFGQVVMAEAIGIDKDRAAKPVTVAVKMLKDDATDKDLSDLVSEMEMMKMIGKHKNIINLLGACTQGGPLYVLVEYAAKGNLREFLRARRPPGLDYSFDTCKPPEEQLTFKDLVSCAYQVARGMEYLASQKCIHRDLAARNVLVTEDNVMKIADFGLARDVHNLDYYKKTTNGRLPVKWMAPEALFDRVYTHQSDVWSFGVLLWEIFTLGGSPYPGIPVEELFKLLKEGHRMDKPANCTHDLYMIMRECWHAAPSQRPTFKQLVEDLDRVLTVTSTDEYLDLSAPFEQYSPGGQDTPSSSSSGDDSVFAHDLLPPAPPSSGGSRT
Sequence of ALK tyrosine kinase receptor (Homo sapiens, UniProt Q9UM73, G1202R) (Q9UM73 19-1620 G1202R limits assumed): as the sequence (Q9UM73 19-1620 limits assumed) above, with G1184R counted along it

For `CC(C)S(=O)(=O)c1ccccc1Nc1nc(Nc2ccc(NC(=O)CCCCCCC(=O)NO)cc2)ncc1Cl`, the Activity (MDA-MB-231 [1]) was 32.53%, the “Ratio IC50” value (NCI-H2228) was 3 and the Activity (SH-SY5Y [2]) was 88.07%. The IC50 [3] was 0.4 nM, the Cmax [4] was 1480 ng/mL and the Activity (MDA-MB-231 [5]) was 8.79%. The IC50 [6] was 2.1 nM, the “Ratio IC50” value (MDA-MB-231 [7]) was 3 and the inhibition [8] was “Dose-Dependent Effect”. The inhibition [9] was “Active”, the Activity (MDA-MB-231 [10]) was 14.37% and the IC50 (cells) was 50 nM. The “Ratio IC50” value (SH-SY5Y [11]) was 3, the inhibition [12] was “Active” and the Activity (MDA-MB-231 [13]) was 3.7%. The Activity (MDA-MB-231 [14]) was 35.05%, the inhibition [15] was “Active” and the Activity (MDA-MB-231 [16]) was 21.32%. The “Ratio IC50” value (A549) was 3, the Activity (MDA-MB-231 [17]) was 14.85% and the inhibition [18] was 95%. For the same molecule, the IC50 [19] was 1.7 nM, the Activity (SH-SY5Y [20]) was 20.49% and the inhibition [21] was “Dose-Dependent Effect”. The inhibition [22] was 80.8% and the Activity (SH-SY5Y [23]) was 4.02%.
